Experimental data from patent US11319283B2, “Substituted cyclobutylbenzene compounds as indoleamine 2,3-dioxygenase (IDO) inhibitors” (MERCK SHARP & DOHME CORP., priority 2017, dated 2022).
pIC50: −log10 of the molar value.

How the values were obtained:
IDO1 = IDO1 (Homo sapiens, UniProt P14902); experiment: IDO1 Cellular Assay in Hela Cells Stimulated with IFNγ; format: cell-based; set-up: endogenous in cells; host or cells: HeLa cells stimulated with IFNγ (100 ng/mL); conditions: Hela cells stimulated with IFNγ 100 ng/mL, 300 uM L-tryptophan, about 48 hours, fluorescence readout
Protocol: IDO1 Cellular Assay in Hela Cells Stimulated with IFNγ
Hela cells were cultured in complete Hela culture medium (90% EMEM, 10% heat-inactivated fetal bovine serum) and expanded to about 1×10^9 cells. The cells were then collected and frozen down at 1×10^7 cells/vial in 1 mL frozen medium (90% complete Hela culture medium, 10% DMSO)
Compounds to be tested were serially diluted in ten 3-fold steps in DMSO starting from 10 mM DMSO stocks in Echo low volume plate(s).
Frozen Hela cells were thawed and transferred into Hela assay medium (99% complete Hela culture medium, 1% Pen/Strep) with 20 mL medium/vial of cells. The cells were spun down at 250 g in a table top centrifuge for 5 min and suspended in same volume of Hela assay medium. The cells were then counted and adjusted to a density of 2×10^5 cells/ml in Hela assay medium. Sterile L-tryptophan were added to the cells with final concentration of 300 uM L-tryptophan. A small aliquot (2 mL/plate) of Hela cells were set aside and were not treated with IFNγ, to serve as the Max-E control.
Hela cells with and without IFNγ were dispensed to the respective wells of 384-well assay plates containing the compounds. The plates were incubated for about 48 hours at a 37° C., 5% CO2 incubator. Afterwards, […] of 0.5 M methyl isonipecotate in dimethyl sulfoxide were added into each well and the plates were sealed and incubated at 37° C. without CO2 overnight. The plates were centrifuged for 1 min at 200×g. The resulting fluorescence was measured in a Spectramax plate reader (Molecular Devices) with a 400 nm excitation filter and a 510 nm emission filter.
Potencies were calculated by linear least squares fit to the four parameter logistic IC50 equation.

TDO = molecular target: T1, TDO (Homo sapiens, UniProt P48775); experiment: TDO Cellular Assay in Frozen SW48 Cells; format: cell-based; conditions: 300 uM L-tryptophan, about 48 hours, fluorescence readout
T1 construct: endogenous in cells; host or cells: SW48 cells (A2780 cells as control with minimal TDO activity)
Protocol: TDO Cellular Assay in Frozen SW48 Cells
SW48 cells were cultured in complete RPMI culture medium (90% RPMI, 10% heat-inactivated fetal bovine serum).
Compounds to be tested were serially diluted in ten 3-fold steps in DMSO starting from 10 mM DMSO stocks in Echo low volume plate(s). […] The cells were spun down at 350 g in a table top centrifuge for 5 minutes and suspended in same volume of RPMI assay medium. […] Sterile L-tryptophan (Sigma, Cat # T0254) was added to the cells with final concentration of 300 uM.
SW48 and A2780 cells were dispensed to the respective wells of 384-well assay plates containing the compounds. The plates were incubated for about 48 hours at a 37° C., 5% CO2 incubator. Afterwards, 12 μL of 0.5 M ethyl isonipecotate (Sigma Aldrich, Cat # E33505) in dimethyl sulfoxide were added into each well and the plates were sealed and incubated at 37° C. without CO2 overnight. The plates were centrifuged for 1 minute at 200×g. The resulting fluorescence was measured in a Spectramax plate reader (Molecular Devices) with a 400 nm excitation filter and a 510 nm emission filter.
The fluorescence intensity of each well was corrected for the background observed in wells with A2780 cells and was expressed as a fraction of the intensity observed in wells of SW48 cells and DMSO only. Potencies were calculated by linear least squares fit to the four parameter logistic IC50 equation.

T1 sequence (P48775 whole entry): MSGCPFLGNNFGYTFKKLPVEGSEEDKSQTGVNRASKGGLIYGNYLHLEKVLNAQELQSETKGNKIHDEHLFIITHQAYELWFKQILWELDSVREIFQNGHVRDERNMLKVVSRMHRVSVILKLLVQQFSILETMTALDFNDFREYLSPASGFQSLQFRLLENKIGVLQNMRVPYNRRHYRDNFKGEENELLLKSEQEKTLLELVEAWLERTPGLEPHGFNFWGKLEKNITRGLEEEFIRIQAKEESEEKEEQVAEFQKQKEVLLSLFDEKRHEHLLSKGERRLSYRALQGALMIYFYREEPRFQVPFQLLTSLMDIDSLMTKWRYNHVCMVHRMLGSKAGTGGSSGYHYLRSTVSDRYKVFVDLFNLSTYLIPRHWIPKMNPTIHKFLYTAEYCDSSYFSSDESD
Sequence of IDO1 (P14902 whole entry): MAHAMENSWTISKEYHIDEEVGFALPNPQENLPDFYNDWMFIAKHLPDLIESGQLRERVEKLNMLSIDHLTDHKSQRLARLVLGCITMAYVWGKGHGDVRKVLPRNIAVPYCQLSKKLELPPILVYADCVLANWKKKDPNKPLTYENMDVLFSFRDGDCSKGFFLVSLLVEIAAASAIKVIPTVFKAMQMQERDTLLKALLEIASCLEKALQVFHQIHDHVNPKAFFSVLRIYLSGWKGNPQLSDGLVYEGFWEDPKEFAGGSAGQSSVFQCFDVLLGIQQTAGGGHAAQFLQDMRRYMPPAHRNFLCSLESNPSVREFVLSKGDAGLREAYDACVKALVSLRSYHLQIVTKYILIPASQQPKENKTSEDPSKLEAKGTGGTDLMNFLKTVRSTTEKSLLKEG

Row | pIC50 (IDO1) | pIC50 (TDO) | Compound
1 | 7.70 | 5.12 | O=C(Nc1ccc(C2(C(=O)Nc3ccc(F)cc3)CC(F)(F)C2)cc1)c1ccnc(C(F)(F)F)c1 [Example 76, N-(4-{3,3-difluoro-1-[(4-fluorophenyl)carbamoyl]cyclobutyl}phenyl)-2-(trifluoromethyl) pyridine-4-carboxamide]
2 | 7.04 | ≤ 5.00 | O=C(Nc1ccc(C2(NC(=O)c3cocn3)CCC2)cc1)c1cccc(Cl)c1 [Example 16, N-(1-{4-[(3-chlorobenzene-1-carbonyl)amino]phenyl}cyclobutyl)-1,3-oxazole-4-carboxamide]
3 | 7.96 | ≤ 5.00 | O=C(Nc1ccc(C2(NC(=O)c3ccc(Cl)cn3)CCC2)cc1)c1cccc(Cl)c1 [Example 9, 5-chloro-N-(1-{4-[(3-chlorobenzene-1-carbonyl)amino]phenyl}cyclobutyl)pyridine-2-carboxamide]
4 | 8.30 | ≤ 5.00 | O=C(Nc1ccc(C2(C(=O)Nc3ccc(F)cc3)CC(F)(F)C2)cc1)c1cc(Cl)ccn1 [Example 74, 4-chloro-N-(4-{3,3-difluoro-1-[(4-fluorophenyl)carbamoyl]cyclobutyl}phenyl) pyridine-2-carboxamide]
5 | 5.98 | ≤ 5.00 | CCCNC(=O)C1(c2ccc(NC(=O)C3Cc4ccccc43)cc2)CCC1 (centres unmarked) [Example 87, N-{4-[1-(propylcarbamoyl)cyclobutyl]phenyl}bicyclo[4.2.0]octa-1,3,5-triene-7-carboxamide]
6 | 8.00 | ≤ 5.00 | O=C(Nc1ccc(C2(C(=O)Nc3ccc(F)cc3)CC(F)(F)C2)cc1)c1cncc(Cl)c1 [Example 75, 5-chloro-N-(4-{3,3-difluoro-1-[(4-fluorophenyl)carbamoyl]cyclobutyl}phenyl) pyridine-3-carboxamide]
7 | 8.00 | ≤ 5.00 | CCCNC(=O)C1(c2ccc(NC(=O)c3ccc(F)c(Cl)c3)cc2)CCC1 [Example 78, 3-chloro-4-fluoro-N-{4-[1-(propylcarbamoyI)cyclobutyl]phenyl}benzamide]
8 | 6.88 | ≤ 5.00 | O=C(Nc1ccc(C2(NC(=O)c3cnccn3)CCC2)cc1)c1cccc(Cl)c1 [Example 3, N-(1-{4-[(3-chlorobenzene-1-carbonyl)amino]phenyl}cyclobutyl)pyrazine-2-carboxamide]
9 | 7.55 | ≤ 5.00 | O=C(Nc1ccc(C2(C(=O)NC3CC3C(F)F)CCC2)cc1)c1cccc(Cl)c1 (centres unmarked) [Example 37, 3-chloro-N-[4-(1-{[2-(difluoromethyl)cyclopropyl]carbamoyl}cyclobutyl)phenyl] benzamide]
10 | 7.15 | ≤ 5.00 | CCOC1CC1NC(=O)C1(c2ccc(NC(=O)c3cccc(Cl)c3)cc2)CC(F)(F)C1 (centres unmarked) [Example 65]
11 | 7.24 | ≤ 5.00 | CCOC(C)CNC(=O)C1(c2ccc(NC(=O)c3cccc(Cl)c3)cc2)CCC1 (centres unmarked) [Example 45, 3-Chloro-N-(4-(1-((2-ethoxypropyl)carbamoyl)cyclobutyl)phenyl)benzamide]
12 | 7.43 | ≤ 5.00 | CCO[C@@H]1C[C@@H]1NC(=O)C1(c2ccc(NC(=O)c3cccc(Cl)c3)cc2)CC(F)(F)C1 [Example 64, 3-chloro-N-[4-(1-{[(1S,2R)-2-ethoxycyclopropyl]carbamoyl}-3,3-difluorocyclobutyl)phenyl] benzamide]
13 | 6.08 | ≤ 5.00 | O=C(Nc1ccc(C2(C(=O)NS(=O)(=O)c3ccccc3)CCC2)cc1)c1cccc(Cl)c1 [Example 53, 3-chloro-N-(4-{1-[(phenylsulfonyl)carbamoyl]cyclobutyl}phenyl) benzamide]
14 | 8.40 | ≤ 5.00 | O=C(Nc1ccc(C2(C(=O)Nc3ccc(F)cc3)CC(F)(F)C2)cc1)c1cccc(F)c1 [Example 72, N-(4-(3,3-Difluoro-1-((4-fluorophenyl)carbamoyl)cyclobutyl)phenyl)-3-fluorobenzamide]
15 | 8.52 | ≤ 5.00 | O=C(Nc1ccc(C2(C(=O)Nc3ccc(F)c(F)c3)CCC2)cc1)c1cccc(Cl)c1 [Example 26, 3-chloro-N-(4-{1-[(3,4-difluorophenyl)carbamoyl]cyclobutyl}phenyl) benzamide]
16 | 7.77 | ≤ 5.00 | O=C(Nc1cccc(Cl)c1F)c1ccc(C2(C(=O)Nc3ccc(F)cn3)CCC2)cc1 [Example 59, N-(3-chloro-2-fluorophenyl)-4-(1-((5-fluoropyridin-2-yl)carbamoyl)cyclobutyl)benzamide]
17 | 8.52 | ≤ 5.00 | O=C(Nc1ccc(C2(C(=O)Nc3ccc(F)cc3F)CCC2)cc1)c1cccc(Cl)c1 [Example 25, 3-chloro-N-(4-{1-[(2,4-difluorophenyl)carbamoyl]cyclobutyl}phenyl) benzamide]
18 | 7.89 | ≤ 5.00 | CCCNC(=O)C1(c2ccc(NC(=O)c3ccc(Cl)c(Cl)c3)cc2)CCC1 [Example 81, 3,4-dichloro-N-{4-[1-(propylcarbamoyl)cyclobutyl]phenyl}benzamide]
19 | 7.11 | ≤ 5.00 | CC1CC1NC(=O)C1(c2ccc(NC(=O)c3cccc(Cl)c3)cc2)CCC1 (single isomer, unassigned) [Example 23, 3-chloro-N-(4-(1-((2-methylcyclopropyl)carbamoyl)cyclobutyl)phenyl)benzamide]
20 | 8.10 | ≤ 5.00 | CCC1CC1NC(=O)C1(c2ccc(NC(=O)c3cccc(Cl)c3)cc2)CCC1 (centres unmarked) [Example 31, 3-chloro-N-(4-{1-[(2-ethylcyclopropyl)carbamoyl]cyclobutyl}phenyl)benzamide]
21 | 5.84 | ≤ 5.00 | CCO[C@@H]1C[C@H]1NC(=O)C1(c2ccc(NC(=O)c3cccc(Cl)c3)cc2)CC(F)(F)C1 [Example 68, 3-chloro-N-[4-(1-{[(1R,2R)-2-ethoxycyclopropyl]carbamoyl}-3,3-difluorocyclobutyl)phenyl] benzamide]
22 | 8.40 | ≤ 5.00 | N#Cc1cccc(C(=O)Nc2ccc(C3(C(=O)Nc4ccc(F)cc4)CC(F)(F)C3)cc2)c1 [Example 73, 3-cyano-N-(4-{3,3-difluoro-1-[(4-fluorophenyl)carbamoyl]cyclobutyl}phenyl) benzamide]
23 | 7.25 | ≤ 5.00 | O=C(Nc1ccc(C2(C(=O)NCCC(F)(F)F)CC(F)(F)C2)cc1)c1cccc(Cl)c1 [Example 69, 3-chloro-N-(4-{3,3-difluoro-1-[(3,3,3-trifluoropropyl)carbamoyl]cyclobutyl}phenyl) benzamide]
24 | 6.75 | ≤ 5.00 | CC(C)(C)/N=C/c1cc(C2(C(=O)NCCC(F)(F)F)CCC2)ccc1NC(=O)c1cccc(Cl)c1 [Example 84, N-(2-[(E)-(tert-butylimino)melhyl]-4-{1-[(3,3,3-trifluoropropyl)carbamoyl]cyclobutyl}phenyl)-3-chlorobenzamide]
25 | 7.41 | ≤ 5.00 | O=C(Nc1ccc(C2(C(=O)NC3CCCOC3)CCC2)cc1)c1cccc(Cl)c1 (centres unmarked) [Example 40, 3-chloro-N-(4-{1-[(oxan-3-yl)carbamoyl]cyclobutyl}phenyl)benzamide]
26 | 6.89 | ≤ 5.00 | O=C(Nc1ccc(C2(C(=O)NCCC(F)(F)F)CCC2)cc1CO)c1cccc(Cl)c1 [Example 83, 3-Chloro-N-(2-(hydroxymethyl)-4-(1-((3,3,3-trifluoropropyl)carbamoyl)cyclobutyl)phenyl)benzamide]
27 | 8.40 | ≤ 5.00 | O=C(Nc1ccc(C2(C(=O)Nc3ccc(F)nc3)CCC2)cc1)c1cccc(Cl)c1 [Example 29, 3-chloro-N-(4-{1-[(6-fluoropyridin-3-yl)carbamoyl]cyclobutyl}phenyl)benzamide]
28 | 5.74 | ≤ 5.00 | O=C(NC1CCC(F)(F)CC1)c1ccc(C2(C(=O)Nc3ccc(F)cn3)CCC2)cc1 [Example 61, N-(4,4-difluorocyclohexyl)-4-{1-[(5-fluoropyridin-2-yl)carbamoyl]cyclobutyl} benzamide]
